Results reported in patent US10080365B2, “Use of strobilurin type compounds for combating phytopathogenic fungi resistant to Qo inhibitors” (BASF SE, priority 2011, dated 2018).
Where two headings read alike, the source gives them in different places.

Experiments:
[1] = system: Septoria tritici isolates containing the G143A in the cytochrome b gene; experiment: Glass house Trial 3: control of leaf blotch on wheat caused by two Septoria tritici isolates containing G143A; type: in vivo; settings: % diseased leaf area after about 28 days
Protocol: The spray solutions were prepared in several steps:
The stock solution was prepared as follows: 1.26 ml of a 1:1 mixture of cyclohexanone and dimethylsulfoxide was added to 8.4 mg of active ingredient. Next, 40.74 ml of a mixture of water, acetone (10%), the emulsifier Wettol (0.1%) and the wetting agent Silwet (0.05%) was added. This stock solution was then further diluted with the described solvent-emulsifier-water mixture to the desired concentrations.
Trial 3: Control of Leaf Blotch on Wheat Caused by Caused by Two Septoria tritici Isolates Containing the G143A in the Cytochrome b Gene for their Cytochrome Bc1 Complex
Wheat plants were grown in pots. These plants were sprayed to run-off with an aqueous suspension, containing the desired concentration of active ingredient. The next day, the treated plants were inoculated with an aqueous suspension of Septoria tritici. After inoculation, the trial plants were covered with a lid and immediately transferred to a chamber with a relative humidity of about 83 to 85% and 19.5 to 20° C. After 4 days the lid was removed. Altogether, the trial plants were cultivated for about 28 days in that greenhouse chamber. The extent of fungal attack on the leaves was then visually assessed as % diseased leaf area.

[2] = system: Septoria tritici (Qo-inhibitor sensitive, wild-type); experiment: Microtiter test, Septoria tritici Qo-inhibitor sensitive wild-type (Use Example 1); type: cell-based; settings: turbidity at 620 nm, read-out: Sensitive Septoria tritici isolate (wild type) (S-IC50)
Protocol: (§1) The active substances were formulated separately as a stock solution in dimethyl sulfoxide (DMSO) at a concentration of 10 000 ppm.
(§2) Activity against the Septoria blotch pathogen caused by Septoria tritici in the microtiter test
(§3) Fungal strains used: • a) Septoria tritici (Qo-inhibitor sensitive, wild-type) • b) Septoria tritici (Qo-inhibitor-resistant, G143A mutant)
(§4) 100 ml 2% Malt extract in water at pH6.8 were inoculated with microspores from 2 week old cultures grown on 2% malt extract+2% agar in Petri dishes and incubated for 3 days on a rotary shaker at 24° C. und 150 rpm. The culture was harvested, glycerol was added (15% (v/v) and kept frozen at −20° C. in aliquots of 1 ml.
(§5) 1 ml stock suspension was thawed and suspended into 800 ml of 2% malt extract in water at pH 6.8. Compounds were diluted from stock solution in (dimethylsulfoxide) DMSO in 10 steps. The compound solutions were diluted 1/5 with sterile deionized water before use. 5 μl of the compound solutions were transferred into empty microplates. The plates were then filled with 195 μl of the microspore suspension of each strain.
(§6) The antifungal activity was determined by measuring the turbidity of a culture in 96-well microplates in the presence of test compounds. Fungal growth was measured by recording the optical density at 620 nm every 15 h for 150 h. The relative antifungal activity was calculated by comparison of the effect of the test compounds with the effect of a DMSO control and a standard fungicide.
(§7) IC50-values (concentration of test compound resulting in 50% inhibition of fungal growth) were calculated from the resulting dose-response for each compound and strain. The initial concentration of the test compounds and the 10 steps of dilution (1:4 each) allowed IC50-values from 0.001 to 100 μmol/l (μM) to be assessed.

[3] = system: Septoria tritici (Qo-inhibitor-resistant, G143A mutant); experiment: Microtiter test, Septoria tritici Qo-inhibitor-resistant G143A mutant (Use Example 1); type: cell-based; settings: for IC50: read-out: Resistant Septoria tritici isolate (G143A mutation) (R-IC50); for Resistance factor RF = R-IC50/S-IC50: ratio of IC50 for G143A resistant isolate to IC50 for wild-type sensitive isolate
Protocol: as §1, §2, §3, §4, §5, §6, §7

[4] = Resistant Septoria tritici isolate 1 (G143A mutation), 12.5 ppm
[5] = Resistant Septoria tritici isolate 1 (G143A mutation), 25 ppm
[6] = Resistant Septoria tritici isolate 1 (G143A mutation), 50 ppm
[7] = Resistant Septoria tritici isolate 1 (G143A mutation), 100 ppm
[8] = Resistant Septoria tritici isolate 1 (G143A mutation), 200 ppm
[9] = Resistant Septoria tritici isolate 2 (G143A mutation), 12.5 ppm
[10] = Resistant Septoria tritici isolate 2 (G143A mutation), 25 ppm
[11] = Resistant Septoria tritici isolate 2 (G143A mutation), 50 ppm
[12] = Resistant Septoria tritici isolate 2 (G143A mutation), 100 ppm
[13] = Resistant Septoria tritici isolate 2 (G143A mutation), 200 ppm
[14] = microtiter test, Qo-inhibitor-resistant G143A mutant, turbidity at 620 nm

CO/C=C(C(=O)OC)\C(C)=C/COc1ccn(-c2ccc(Cl)cc2)n1 [Compound I-7, (Z)-5-[1-(4-Chloro-phenyl)-1H-pyrazol-3-yloxy]-2-[1-methoxy-meth-(E)-yl-idene]-3-methyl-pent-3-enoic acid methyl ester]
Disease level (%) [1, 4]: 100%
Disease level (%) [1, 5]: 80%
Disease level (%) [1, 6]: 20%
Disease level (%) [1, 7]: 3%
Disease level (%) [1, 8]: 3%
Disease level (%) [1, 9]: 90%
Disease level (%) [1, 10]: 15%
Disease level (%) [1, 11]: 5%
Disease level (%) [1, 12]: 1%
Disease level (%) [1, 13]: 0%

CNC(=O)C(=NOC)C(C)=CCOc1ccn(-c2ccc(F)cc2F)n1 [Compound I-11]
Disease level (%) [1, 4]: 100%
Disease level (%) [1, 5]: 90%
Disease level (%) [1, 6]: 30%
Disease level (%) [1, 7]: 3%
Disease level (%) [1, 8]: 1%
Disease level (%) [1, 9]: 70%
Disease level (%) [1, 10]: 50%
Disease level (%) [1, 11]: 30%
Disease level (%) [1, 12]: 5%
Disease level (%) [1, 13]: 1%

CNC(=O)C(=NOC)C(C)=CCOc1ccn(-c2ccc(F)cc2Cl)n1 [Compound I-14]
Disease level (%) [1, 4]: 100%
Disease level (%) [1, 5]: 80%
Disease level (%) [1, 6]: 70%
Disease level (%) [1, 7]: 15%
Disease level (%) [1, 8]: 3%
Disease level (%) [1, 9]: 90%
Disease level (%) [1, 10]: 70%
Disease level (%) [1, 11]: 15%
Disease level (%) [1, 12]: 5%
Disease level (%) [1, 13]: 1%

Cn1nnn(-c2ccccc2COc2ccn(-c3ccc(Cl)cc3)n2)c1=O [Compound I-211]
Disease level (%) [1, 4]: 80%
Disease level (%) [1, 5]: 60%
Disease level (%) [1, 6]: 10%
Disease level (%) [1, 7]: 3%
Disease level (%) [1, 8]: 1%
Disease level (%) [1, 9]: 30%
Disease level (%) [1, 10]: 10%
Disease level (%) [1, 11]: 5%
Disease level (%) [1, 12]: 1%
Disease level (%) [1, 13]: 0%
IC50 [2]: 0.44 µM
IC50 [3, 14]: 1.1 µM
Resistance factor RF = R-IC50/S-IC50 [3]: 2.6

CON=C(C(=O)OC)C(C)=CCOc1ncn(-c2ccc(Cl)c(Cl)c2)n1 [Compound I-291]
IC50 [2]: 1 µM
IC50 [3, 14]: 18 µM
Resistance factor RF = R-IC50/S-IC50 [3]: 18.0

CON=C(C(=O)OC)C(C)=CCOc1ncn(-c2ccc(Br)cc2)n1 [Compound I-292]
IC50 [2]: 7.9 µM
IC50 [3, 14]: 33 µM
Resistance factor RF = R-IC50/S-IC50 [3]: 4.2

CON=C(C(=O)OC)C(C)=CCOc1ncn(-c2cc(C(F)(F)F)ccc2Cl)n1 [Compound I-298]
IC50 [2]: 3.6 µM
IC50 [3, 14]: 31 µM
Resistance factor RF = R-IC50/S-IC50 [3]: 8.6

CON=C(C(=O)OC)C(C)=CCOc1ncn(-c2ccc(Cl)cc2Cl)n1 [Compound I-303]
IC50 [2]: 0.27 µM
IC50 [3, 14]: 4.6 µM
Resistance factor RF = R-IC50/S-IC50 [3]: 17.0

CCc1ccc(-n2cnc(OCC=C(C)C(=NOC)C(=O)OC)n2)cc1 [Compound I-304]
IC50 [2]: 0.53 µM
IC50 [3, 14]: 9.1 µM
Resistance factor RF = R-IC50/S-IC50 [3]: 17.2

CNC(=O)C(=NOC)C(C)=CCOc1ncn(-c2ccc(Cl)cc2Cl)n1 [Compound I-305]
IC50 [2]: 9.3 µM
IC50 [3, 14]: 32 µM
Resistance factor RF = R-IC50/S-IC50 [3]: 3.4

CON=C(C(=O)OC)C(C)=CCOc1ccn(-c2cc(Cl)ccc2C)n1 [Compound I-307]
IC50 [2]: 19 µM
IC50 [3, 14]: 67 µM
Resistance factor RF = R-IC50/S-IC50 [3]: 3.5

CON=C(C(=O)OC)C(C)=CCOc1ncn(-c2ccc(C)c(Cl)c2)n1 [Compound I-310]
IC50 [2]: 0.39 µM
IC50 [3, 14]: 11 µM
Resistance factor RF = R-IC50/S-IC50 [3]: 28.2

CON=C(C(=O)OC)C(C)=CCOc1ncn(-c2ccccc2C)n1 [Compound I-319]
IC50 [2]: 17 µM
Resistance factor RF = R-IC50/S-IC50 [3]: 6.0

CON=C(C(=O)OC)C(C)=CCOc1ncn(-c2cc(C)ccc2C)n1 [Compound I-324]
IC50 [2]: 1.9 µM
IC50 [3, 14]: 38 µM
Resistance factor RF = R-IC50/S-IC50 [3]: 20.0

CON=C(C(=O)OC)C(C)=CCOc1ncn(-c2ccc(C(F)(F)F)cc2Cl)n1 [Compound I-326]
IC50 [2]: 1.2 µM
IC50 [3, 14]: 18 µM
Resistance factor RF = R-IC50/S-IC50 [3]: 15.0

CON=C(C(=O)OC)C(C)=CCOc1ncn(-c2cc(Cl)cc(Cl)c2)n1 [Compound I-331]
IC50 [2]: 1.8 µM
IC50 [3, 14]: 25 µM
Resistance factor RF = R-IC50/S-IC50 [3]: 13.9

CNC(=O)/C(=N/OC)c1ccccc1COc1cc(C)ccc1C [Dimoxystrobin, reference compound]
IC50 [2]: 7.1 µM
IC50 [3, 14]: > 100 µM

CO/C=C(/C(=O)OC)c1ccccc1CO/N=C(C)/C=C/c1ccc(Cl)cc1 [Enestroburin, reference compound]
IC50 [2]: 4.5 µM
IC50 [3, 14]: > 100 µM

CO/N=C(/C(=O)OC)c1ccccc1COc1ccccc1C [Kresoximmethyl]
IC50 ([2]; Zymoseptoria tritici): 0.76 µM
IC50 ([3]; Zymoseptoria tritici): > 100 µM

CNC(=O)/C(=N/OC)c1ccccc1Oc1ccccc1 [Metominostrobin, reference compound]
IC50 ([2]; Zymoseptoria tritici): > 100 µM
IC50 ([3]; Zymoseptoria tritici): > 100 µM

CNC(=O)/C(=N/OC)c1ccccc1CO/N=C(C)/C(=N/OC)C(/C)=N/OC [Orysastrobin, reference compound]
IC50 [2]: 27 µM
IC50 [3, 14]: > 100 µM

CO/C=C(/C(=O)OC)c1ccccc1COc1cccc(C(F)(F)F)n1 [Picoxystrobin, reference compound]
IC50 [2]: 2.3 µM
IC50 [3, 14]: > 100 µM

COC(=O)N(OC)c1ccccc1COc1c(C)c(-c2ccccc2)nn1C [Pyrametostrobin, reference compound]
IC50 [2]: > 100 µM
IC50 [3, 14]: > 100 µM

CO/C=C(/C(=O)OC)c1ccccc1COc1cc(-c2ccc(Cl)cc2)nn1C [Pyraoxystrobin, reference compound]
IC50 [2]: 1.6 µM
IC50 [3, 14]: > 100 µM

CON=C(C(=O)OC)c1ccccc1CON=C(C)c1cccc(C(F)(F)F)c1 [Trifloxystrobin, reference compound]
Disease level (%) [1, 4]: 100%
Disease level (%) [1, 5]: 100%
Disease level (%) [1, 6]: 90%
Disease level (%) [1, 7]: 90%
Disease level (%) [1, 8]: 90%
Disease level (%) [1, 9]: 80%
Disease level (%) [1, 10]: 70%
Disease level (%) [1, 11]: 70%
Disease level (%) [1, 12]: 70%
Disease level (%) [1, 13]: 60%
IC50 ([2]; Zymoseptoria tritici): 0.52 µM
IC50 ([3]; Zymoseptoria tritici): > 100 µM
